Experimental data as given in patent publication US20120040464A1, “METHOD FOR GENERATING HOMOPLASMIC CELLS FROM HETEROPLASMIC CELLS” (NATIONAL CENTER OF NEUROLOGY AND PSYCHIATRY, priority 2009, published 2012).

Tested on: MELAS cells (primary culture cells from the skeletal muscle and skin of MELAS patients)
Details: 100 μM, 30 minutes
Experimental: MELAS cells were plated to result in a cell density of 1×10^5 to 1×10^6 cells/mL in the presence of DMEM containing 10% FCS, and they were then cultured at 37° C. in a 5% CO2 atmosphere for 3 days. After completion of the culture for 3 days, when the cell density reached 5×10^5 to 6×10^6 cells/mL, the cells were diluted by a factor of 10^4 to 1.2×10^5. The resultant cells were plated and were further cultured for 15 days. After completion of the culture for 15 days, several single colonies of cells were selected, and DNA was then extracted by a common method. Using the extracted DNA sample as a template, PCR was carried out with a primer pair for amplifying a site around the nucleotide at position 3243 of the mtDNA. Thereafter, the PCR product was treated with ApaI. In the case of normal mtDNA, the sequence around the nucleotide at position 3243 is GAGCCC (wherein the underlined portion corresponds to the nucleotide at position 3243). […] Accordingly, it becomes possible to evaluate the heteroplasmic state of the cells by calculating the ratio of the 182-bp and 112-bp bands to the 294-bp bands (see Goto et al., Nature, 348, 651-653, 1990 for the details of this method).
Thereafter, the cells were washed with PBS three times, and were then cultured for 3 days. After completion of the culture for 3 days, when the cell density reached 5×10^5 to 6×10^6 cells/mL, the cells were diluted by a factor of 10^4 to 1.2×10^5. The resultant cells were plated and were further cultured for 15 days. After completion of the culture for 15 days, several single colonies of cells were selected, and DNA was then extracted by a common method. The intracellular percentage of the A3243G substitution mutation of mtDNA was examined with respect to the obtained DNA samples by the same method as described above.

For OO [hydrogen peroxide], the “percentage of A3243G substitution mutation in cell clones obtained after a hydrogen peroxide treatment” value (then 3 days and 15 days culture, single-colony clones with decreased percentage, e.g. clone 16, clone 25) was roughly 0%, the “percentage of A3243G substitution mutation in clones where it became higher than without hydrogen peroxide treatment” value (e.g. clones 15, 27, 29, 32, 34, 35, 36, 39, untreated 30%) was greater than 30% and the “effect of treatment on homoplasmic state of the cells” value (MELAS cells) was “promotes the conversion of the cells to a homoplasmic state”.
